Results from patent publication US20210267239A1, “Process for Sanitizing and Preserving Foodstuffs and Beverages” (LANXESS Deutschland GmbH, priority 2018, published 2021).

How the values were obtained:
Assay type in all cases: cell-based
Candida glabrata = experiment: MIC determination in RPMI-1640 growth medium (CLSI M27-A3); conditions: Nakaseomyces glabratus, 168 h, growth medium RPMI-1640, seeding 1000 cfu/ml, after one week, read-out: MIC (mg/l) after one week
Method: (§1) After one week, a proportion of the medium was tested for the presence of microorganisms and these tests were used to determine the MIC (minimum inhibitory concentration). Individual test substances: natamycin, mycosamine Test microbe: Candida glabrata Substrate: growth medium Microbial seeding per ml of substrate: 1000 cfu/ml Synergism was ascertained according to the method described in Kull, F. C. et al.; Mixtures of quaternary ammonium compounds and long-chain fatty acids as antifungal agents. Applied Microbiology, 9, 538-541, 1961. The following relationships apply: QA/Qa+QB/Qb=SI Qa=concentration of substance A which is the MIC Qb=concentration of substance B which is the MIC QA=concentration of substance A in the concentration of A/B at which microbial growth is suppressed QB=concentration of substance B in the concentration of A/B at which microbial growth is suppressed SI=synergistic index […]

Candida albicans = experiment: as above; conditions: 168 h, growth medium RPMI-1640, seeding 1000 cfu/ml, after one week, read-out: MIC (mg/l) after one week
Method: as §1, with “of the growth medium was” for “of the medium was”, “microbe: Candida albicans Substrate: growth” for “microbe: Candida glabrata Substrate: growth”

[1] = system: mixture of Saccharomyces cerevisiae, Zygosaccharomyces bailii, Penicillium carneum and Trichoderma virens; experiment: MIC determination in contaminated iced tea, non-carbonated; conditions: 168 h, mixed test microbes, 250 cfu/ml each, after one week, read-out: MIC (mg/l) after one week
Method: as §1, with “mixture of Saccharomyces cerevisiae, Zygosaccharomyces bailii, Penicillium carneum and Trichoderma virens” for “Candida glabrata”, “iced tea, non-carbonated” for “growth medium”, “250” for “1000”, “cfu/ml each of the test microbes listed above” for “cfu/ml”

Candida krusei = experiment: MIC determination in RPMI-1640 growth medium (CLSI M27-A3); conditions: Pichia kudriavzevii, 168 h, growth medium RPMI-1640, seeding 1000 cfu/ml, after one week, read-out: MIC (mg/l) after one week
Method: as §1, with “krusei” for “glabrata”

MIC [1] [mg/L] | SMILES | MIC (Candida glabrata) [mg/L] | MIC (Candida albicans) [mg/L] | MIC (Candida krusei) [mg/L]
0.75 | C[C@@H](O)[C@@H](O)[C@H](N)[C@H](O)C=O [Mycosamine, 3-amino-3,6-dideoxymannose] | 0.5 | 32 | 2
4 | C[C@@H]1C/C=C/C=C/C=C/C=C/[C@H](O[C@@H]2O[C@H](C)[C@@H](O)[C@H](N)[C@@H]2O)C[C@@H]2O[C@](O)(C[C@@H](O)C[C@H]3O[C@@H]3/C=C/C(=O)O1)C[C@H](O)[C@H]2C(=O)O [Natamycin, (8E,14E,16E,18E,20E)-(1R,3S,5R,7R,12R,22R,24S,25R,26S)-22-(3-amino-3,6-dideoxy-25-D-mannopyranosyloxy)-1,3,26-trihydroxy-12-methyl-10-oxo-6,11,28-trioxatricyclo[22.3.1.05,7]octacosa-8,14,16,18,20-pentaene-25-carboxylic acid] | 1 | 1 | 2
